From PubChem BioAssay (NCI)
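Protocol summary: plate cells (96-well), add compound at 5 concentrations, incubate 48 h, interpolate endpoints linearly. Here, GI50 denotes the concentration required for 50% inhibition of growth. The concentration for full growth arrest is given as TGI.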

Key:
Test in all cases: NCI-60 cell line screen, 48 h
HCT-116 colon = tested on: HCT-116 colon
ACHN renal = tested on: ACHN renal
OVCAR-5 ovarian = tested on: OVCAR-5 ovarian
RXF 393 renal = tested on: RXF 393 renal
IGROV1 ovarian = tested on: IGROV1 ovarian
NCI-H522 lung = tested on: NCI-H522 lung
HOP-62 NSCLC = tested on: HOP-62 NSCLC
HL-60(TB) leukemia = tested on: HL-60(TB) leukemia
K-562 leukemia = tested on: K-562 leukemia

| SMILES | GI50 (HCT-116 colon) | TGI (HCT-116 colon) | GI50 (ACHN renal) | TGI (ACHN renal) | GI50 (OVCAR-5 ovarian) | TGI (OVCAR-5 ovarian) | GI50 (RXF 393 renal) | TGI (RXF 393 renal) | GI50 (IGROV1 ovarian) | TGI (IGROV1 ovarian) | GI50 (NCI-H522 lung) | TGI (NCI-H522 lung) | GI50 (HOP-62 NSCLC) | TGI (HOP-62 NSCLC) | GI50 (HL-60(TB) leukemia) | TGI (HL-60(TB) leukemia) | GI50 (K-562 leukemia) | TGI (K-562 leukemia) |
| --- | --- | --- | --- | --- | --- | --- | --- | --- | --- | --- | --- | --- | --- | --- | --- | --- | --- | --- |
| O=C(Nc1ccc(-c2nc(N3CCOCC3)c3cccn3n2)cc1)Nc1cccnc1 | 0.041 µM | 27.7 µM | 0.189 µM | 3.64 µM | 0.071 µM | > 100 µM | 0.0345 µM | 0.359 µM | 0.0767 µM | 0.464 µM | 0.125 µM | > 100 µM | 0.336 µM | > 100 µM | 0.359 µM | > 100 µM | 0.195 µM | > 100 µM |
| O=C(O)/C=C(\c1nc2ccc([N+](=O)[O-])cc2[nH]1)c1cc(Cl)ccc1O | 2.35 µM | 7.03 µM | 2.38 µM | 10.6 µM | 5.29 µM | 43.3 µM | 3.55 µM | 21.2 µM | 2.92 µM | 39.5 µM | 1.17 µM | 5.03 µM | 3.55 µM | 28.3 µM | 2.42 µM | 30.4 µM | 2.8 µM | 16.6 µM |
| C#CCNC(=O)c1cccc2c1cc(C)n2-c1nc2c(c(NCc3ccccc3)n1)CCCC2 | 0.0109 µM | 0.0378 µM | 0.0255 µM | 0.11 µM | 0.0461 µM | 0.154 µM | 0.0122 µM | 0.0406 µM | 0.0276 µM | 0.102 µM | 0.0251 µM | 0.0808 µM | 0.0308 µM | 0.114 µM | 0.029 µM | 0.191 µM | 0.0179 µM | – |
| O=C1c2cccc([N+](=O)[O-])c2C(=O)N1c1ncn[nH]1 | – | > 100 µM | – | > 100 µM | – | > 100 µM | – | > 100 µM | – | > 100 µM | – | > 100 µM | – | > 100 µM | – | > 100 µM | – | > 100 µM |
| CCCn1c(=S)sc2c1nc(C)n1c(Nc3ccccc3)nnc21 | 4.43 µM | 17.7 µM | 5.05 µM | > 100 µM | 21 µM | > 100 µM | 15.1 µM | > 100 µM | 25.8 µM | > 100 µM | 3.57 µM | 15.5 µM | 7.15 µM | 23.9 µM | 3.46 µM | > 100 µM | 6.15 µM | 37.7 µM |
| COc1cc2cc(Oc3ccc(NC(=O)Nc4ccc(Cl)c(C(F)(F)F)c4)cc3)c(C)nc2cc1OCCN1CCOCC1 | 1.2 µM | 10.8 µM | 2.03 µM | 11.6 µM | 4.02 µM | 65.2 µM | 1.77 µM | 3.99 µM | 2.43 µM | 23.2 µM | 1.43 µM | 4.07 µM | 2.05 µM | 4.55 µM | 2.32 µM | 7.55 µM | 0.669 µM | 6.95 µM |
| NC(=S)N1N=C2c3ccccc3CC[C@@H]2[C@@H]1c1ccccc1 | – | 19.1 µM | – | > 88.9 µM | – | 99.9 µM | – | 41.5 µM | – | > 80.3 µM | – | 4.53 µM | – | > 59.1 µM | – | 10.5 µM | – | > 49.1 µM |
| CS(=O)(=O)CCNCc1ccc(-c2ccc3ncnc(Nc4ccc(OCc5ccccc5)cc4)c3c2)o1 | 5.99 µM | > 17 µM | 1.28 µM | > 25 µM | 6.51 µM | > 25 µM | 4.12 µM | 10.1 µM | 3.45 µM | > 18.8 µM | 3.32 µM | 10.4 µM | 9.66 µM | > 25 µM | 6.4 µM | 14 µM | 9.27 µM | > 25 µM |
| Cn1c2ccccc2c2ccc3c(c21)C(=O)c1ccccc1C3=O | – | 40.6 µM | – | 69.2 µM | – | > 100 µM | – | 32 µM | – | 31.4 µM | – | 29.6 µM | – | 45.5 µM | – | 10.8 µM | – | 32.2 µM |
